From patent publication US20260265316A1, “IMMUNOTHERAPEUTIC METHODS, COMPOUNDS, AND COMPOSITIONS FOR TREATING OR PREVENTING CELIAC DISEASE” (DBV Technologies, priority 2023, published 2026)

Assays:
[1] = Method: Freeze-dried aliquots of the three gliadin polypeptide constructs Cv6, Av6, and 4K, as well as the four building blocks BB1, BB2a, BB3a, and BB4a were reconstituted in pure water, loaded on a PET-Ti backing film and dried in an oven (at ~30° C.). Immediately after drying, dry deposits were reconstituted at five different molarities (approximately 1.8, 0.91, 0.45, 0.091 or 0.045 mM) by pipetting up and down with either pure water (A), PBS 1× (B), or artificial perspiration (C). The concentration in soluble material was measured by HPLC at 215 nm from the solutions recovered from PET-Ti backing films. Data are median+interquartile range of the different molarities tested. Data are expressed as the percentage of soluble material recovered, based on the expected concentration (all values above 100% were set to 100).
Immediately after drying, dry deposits were reconstituted at five different concentrations (20, 10, 5, 1 and 0.5 mg/mL) by pipetting up and down with either pure water (A), PBS 1× (B), or artificial perspiration (C). The concentration in soluble material was measured by HPLC at 215 nm from the solutions recovered from PET-Ti backing films. Data are presented as median+interquartile range of the different molarities tested. Data are expressed as the percentage of soluble material recovered, based on the expected concentration (all values above 100% were set to 100). (D) As an illustration, photographs of the reconstitution of dry deposits with pure water are shown and annotated.
Immediately after drying, deposits were reconstituted by pipetting up and down with each of pure water, PBS 1× at pH 7.0, and artificial perspiration at pH 4.5, each at five different molarities (approximately 1.8, 0.91, 0.45, 0.091, and 0.045 mM). The concentration in soluble material was measured by HPLC at 215 nm.
Immediately after drying, patch deposits were reconstituted by pipetting up and down with each of pure water, PBS 1× at pH 7.0, and artificial perspiration at pH 4.5, at five different concentrations (20, 10, 5, 1, and 0.5 mg/mL). The concentration in soluble material was measured by HPLC at 215 nm.

[2] = test system: circulating gluten-specific CD4+ T cells in whole blood of HLA-DQ2+ CeD patients; experiment: Whole blood IL-2 cytokine release assay, HLA-DQ2+ CeD participants; assay type: cell-based, human; conditions: HLA-DQ2+ donors; whole blood, 24 hours
From the text: FIGS. 10A-10B are graphs depicting the evaluation of the ability of various molarities of three gliadin polypeptides (Cv6, Av6, and 4K), two peptide mixes containing either the four individual building blocks BB1, BB2a, BB3a and BB4a (BB1-4a) or two Nexvax2 peptides (Nex01/02), and six individual building blocks or peptides (BB1, BB2a, BB3a, BB4a, Nex01, and Nex02) to restimulate gluten-specific T cell collected from HLA-DQ2+ CeD patients using a whole blood IL-2 release assay. The whole blood cytokine release assay was performed in six HLA-DQ2+ participants with biopsy-confirmed celiac disease. Whole blood was stimulated with the three gliadin polypeptide constructs Cv6, Av6, and 4K at 10, 2.5, and 0.5 μM final molarities, as indicated. Alternatively, whole blood was stimulated with a mix of peptides containing either the four building blocks BB1, BB2a, BB3a, and BB4a (BB1-4a) or Nex01 and Nex 02 (Nex01/02) at 10, 2.5, and 0.5 μM final molarities. Building blocks (BB1, BB2a, BB3a, and BB4a), Nex01, and Nex02 were also tested as individual peptides, at a single concentration of 10 μM. After 24 hours of incubation, the concentration of IL-2 was quantified from plasma using an MSD IL-2 S-plex ELISA. Data are expressed in femtogram/mL of plasma (A), or as fold change from the negative control (PBS 1×) (B). Symbols represent individual participants (patient ID); bars represent median+interquartile range of individual values.
(§1) The overarching objective of this assay was to validate that the polypeptide constructs (Cv6, Av6, and 4K) can be recognized and processed by human APCs, and they can then promote the activation of gluten-specific effector/memory CD4^+ T cells in CeD patients. A Cytokine Release Assay (CRA) was used (previously described in the literature: Anderson et al., Clinical & Experimental Immunology, 2021 June; 204(3): 321-334; and in Hardy et al., Frontiers in Immunology, 2021, Vol. 12, Article 661662, the entire contents of each of which are incorporated by reference herein). This assay quantifies IL-2 produced by circulating gluten-specific CD4^+ T cells present in the blood of CeD patients upon in vitro stimulation with gluten-derived antigens. Due to the extremely high sensitivity of this CRA, no oral exposure to gluten was required prior to blood sampling.
(§2) Informed consent was obtained from all subjects prior to blood collection.
(§3) Unfractionated blood (225 μL per well of a 96-well plate) was then rapidly restimulated for 24 hours with each of three of the polypeptide constructs provided herein (SEQ ID NO:23 wherein X is C [Cv6, i.e., SEQ ID NO:49], SEQ ID NO:23 wherein X is A [Av6, i.e., SEQ ID NO:50], and SEQ ID NO:46 [4K]) and with each of four individual building blocks (SEQ ID NO:15 wherein Z is E [BB1], SEQ ID NO:16 wherein Z is E [BB2a], SEQ ID NO:20 wherein Z is E [BB3a], and SEQ ID NO:18 wherein Z is E [BB4a]). The concentrations of the polypeptide constructs ranged from 0.5 to 10 micromolar, and the concentration for each individual building block was 10 micromolar. […] These two peptides comprise an N-terminal pyroglutamate and a C-terminal amide. Nex01 and Nex02 were the two gliadin peptides used in the Nexvax2 immunotherapeutic vaccine that was intended to restore immune tolerance to gluten in HLA-DQ2.5+ CeD patients. A positive control consisted of blood cells stimulated with phytohemagglutinin (PHA) (10 μg/mL) which activates all T cells regardless of their antigen specificity (i.e., a polyclonal activator). Negative controls consisted of cells treated with buffer only (PBS 1×).
(§4) After incubation for 24 hours at 37° C. and 5% CO2, plasma was separated from whole blood by centrifugation. Plasma was collected from each well and replicates (n=6 replicates per test) pooled. All plasma samples were frozen at −80° C. until analysis. Single plasma aliquots (100 μL) were thawed and analyzed in duplicate using MSD IL-2 S-plex according to the manufacturer's instructions.

[3] = test system: circulating gluten-specific CD4+ T cells in whole blood of HLA-DQ8+ CeD patients; experiment: Whole blood IL-2 cytokine release assay, HLA-DQ8+ CeD participants; assay type: cell-based, human; conditions: HLA-DQ8+ donors; whole blood, 24 hours
From the text: FIGS. 11A-11B are graphs depicting the evaluation of the ability of various molarities of three gliadin polypeptides (Cv6, Av6, and 4K), two peptide mixes containing either the four individual building blocks BB1, BB2a, BB3a and BB4a (BB1-4a) or two Nexvax2 peptides (Nex01/02), and six individual building blocks or peptides (BB1, BB2a, BB3a, BB4a, Nex01, and Nex02) to restimulate gluten-specific T cell collected from HLA-DQ8+ CeD patients using a whole blood IL-2 release assay. The whole blood cytokine release assay was performed in four HLA-DQ8+ participants with biopsy-confirmed celiac disease as described in FIG. 10. Data are expressed in femtogram/mL of plasma (A), or as fold change from the negative control (PBS 1×) (B). Symbols represent individual participants (patient ID); bars represent the median+interquartile range of individual values.
as §1, §2, §3, §4

Substance	median percentage of soluble material recovered from the patch backing film [1]	IL-2 response (in words) [2]	IL-2 response (in words) [3]
Ac-QLQPFPQPELPYPQPELPYPQPELPYPQPQP-NH2 [BB1]	93-100%	potent IL-2 responses	no or low responses
H-PQQPFPQPEQPFPWQPQ-NH2 [BB3a]	93-100%	potent IL-2 responses	no or low responses
